Values of other authors in US20070218155A1, “Methods and compositions for treating dyslipidaemia” (priority 2004, published 2007).

Columns and labels:
[1] = literature statement; cited from earlier work
[2] = molecular target: T1, HMG CoA reductase (Homo sapiens, UniProt P04035); conditions: HepG2 cells; comparison value; cited from earlier work
T1 construct: host or cells: HepG2
T1 sequence (P04035 1-888): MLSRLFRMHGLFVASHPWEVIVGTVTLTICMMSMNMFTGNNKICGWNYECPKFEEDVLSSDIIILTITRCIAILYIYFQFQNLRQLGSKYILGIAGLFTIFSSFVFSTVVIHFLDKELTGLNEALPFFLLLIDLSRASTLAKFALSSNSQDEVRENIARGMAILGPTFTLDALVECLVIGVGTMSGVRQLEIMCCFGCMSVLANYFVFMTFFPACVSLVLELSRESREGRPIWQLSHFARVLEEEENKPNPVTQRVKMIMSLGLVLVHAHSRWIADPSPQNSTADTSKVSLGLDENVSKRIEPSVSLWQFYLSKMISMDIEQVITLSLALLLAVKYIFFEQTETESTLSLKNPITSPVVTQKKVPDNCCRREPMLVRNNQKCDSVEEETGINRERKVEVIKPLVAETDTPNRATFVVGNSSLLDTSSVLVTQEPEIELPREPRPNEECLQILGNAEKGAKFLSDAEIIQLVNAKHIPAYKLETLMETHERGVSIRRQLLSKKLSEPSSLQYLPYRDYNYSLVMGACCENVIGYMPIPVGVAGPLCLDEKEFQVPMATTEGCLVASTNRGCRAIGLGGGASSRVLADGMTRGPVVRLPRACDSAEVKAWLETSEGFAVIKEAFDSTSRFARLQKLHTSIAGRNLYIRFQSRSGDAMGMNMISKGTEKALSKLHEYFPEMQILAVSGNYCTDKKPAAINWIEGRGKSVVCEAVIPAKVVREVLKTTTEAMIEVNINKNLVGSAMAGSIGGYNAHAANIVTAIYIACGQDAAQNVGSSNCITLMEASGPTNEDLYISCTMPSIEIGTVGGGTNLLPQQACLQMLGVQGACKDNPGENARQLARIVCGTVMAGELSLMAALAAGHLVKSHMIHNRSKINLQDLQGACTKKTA

[3] = tested on: DGAT activity in intact Raji cells; conditions: Tabata et al.; cited from earlier work

Row | Structure (SMILES) | estrogenic activity [1] | inhibition of HMG CoA reductase [2] | inhibition of triacylglycerol formation / DGAT activity in intact Raji cells [3]
1 | CC(C)=CCc1c(O)cc(O)c2c1O[C@H](c1ccc(O)cc1)CC2=O [8-prenylnaringenin, 8-prenylnaringenin] | potent estrogenic activity | – | –
2 | CC(C)c1c(C(=O)Nc2ccccc2)c(-c2ccccc2)c(-c2ccc(F)cc2)n1CC[C@@H](O)C[C@@H](O)CC(=O)O [Atorvastatin] | – | about 96% | –
3 | COc1cc(O)c(CC=C(C)C)c(O)c1C(=O)/C=C/c1ccc(O)cc1 [xanthohumol] | does not exhibit estrogenic activity | – | inhibited DGAT activity specifically in human cells
